Measurements from patent US20130171079A1, “COMPOSITION TO STABILISE KOJIC ACID” (Pangaea Laboratories Ltd., priority 2011, published 2013).

How the values were obtained:
[1] = background statement; accelerated by heat, UV or low pH; cited from earlier work
[2] = Colour-change stability test of 2% kojic acid in an aqueous cosmetic base with sodium metabisulphite and/or propyl gallate; assay type: physicochemical; conditions: over 42 days, room temperature, 2% kojic acid aqueous base
Description: A test was conducted to measure the effect of sodium metabisulphite and propyl gallate on the stability of kojic acid in aqueous cosmetic or pharmaceutical compositions. In this regard kojic acid is known to change colour from a slight yellow to very dark yellow as it degrades, and so colour change was used as the indicator of stability vs. degradation. All samples contained 2% kojic acid in an aqueous cosmetic base. [table] Each sample was photographed and optically assessed against a 20-stage yellow colour spectrum, where 1 was a very pale straw yellow, and 20 was a dark yellow. Photographs were taken on day 1, day 7 and day 42. In between photographs, the samples were stored together at normal room temperature.

[3] = Earlier experiments on stability (discolouration) of kojic acid solutions with stabilisers; assay type: physicochemical; conditions: two month period
Description: One useful, if obvious, solution to the problem would be to add a preservative such as sodium metabisulphite. Sodium metabisulphite is in a class of preservatives that release sulphur dioxide. […] However this option is not enough for two reasons. Firstly, two months is not sufficient shelf life for a cosmetic or pharmaceutical composition. Secondly, a preferable format for a skin lightening composition would also include one or more other lightening ingredients, such as lactic acid, niacinamide and ascorbic acid. The net effect of these ingredients may lower the pH, and accelerate the degradation of kojic acid. This has been shown in experiments to overcome the stabilising effect of sodium metabisulphite during a two month period.
It was then hypothesised that reducing agents or antioxidants may help by preventing free radical formation. Various antioxidants were tested without noticeable effect.
Researchers expected the combination to deliver better results that propyl gallate, but worse results than sodium metabisulphite alone. Instead the kojic acid solution remained completely clear for more than two months. The result is certainly not additive and therefore must be due to some previously unknown synergy between sodium metabisulphite and propyl gallate.

effect of the additive on stability of kojic acid (in words) [2] | Compound | stability of kojic acid in solution (in words) [1] | stabilisation / discolouration of kojic acid solution (in words) [3]
 | O=c1cc(CO)occ1O [kojic acid] | degrades within weeks in solution | 
worsened stability slightly | CCCOC(=O)c1cc(O)c(O)c(O)c1 [propyl gallate] |  | 
improved stability slightly | O=S([O-])S(=O)(=O)[O-].[Na+].[Na+] [sodium metabisulphite] |  | keeping discolouration to a low level for up to two months
